According to patent US9226929B2, “Pharmaceutically active disubstituted triazine derivatives” (Bayer Intellectual Property GMBH, priority 2011, dated 2016):

Legend:
CDK9/Cyclin K = target: T1, CDK9/Cyclin K (Homo sapiens, UniProt P50750); assay: LanthaScreen Eu Kinase Binding Assay, CDK9/Cyclin K; details: tracer 236, read-out: CDK9/Cyclin K (activity range), Kd
T1 construct: His; purchased Invitrogen
Summary of the method: (§1)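 TR-FRET displacement of an Alexa Fluor 647 active-site tracer, detected with a Eu anti-GST antibody, over an 8-point 1:3 compound series. Tracer was set at its Kd (30 nM for CDK2/Cyclin A, CDK7 and CDK9/Cyclin T1; 35 nM for CDK9/Cyclin K). Read after 1 h at room temperature; Kd was fitted from sigmoidal curves.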

CDK1/CyclinB1 = target: T2, CDK1/CyclinB1 (Homo sapiens, UniProt P06493); assay: Lance Ultra KinaSelect Assay, CDK1; assay type: biochemical; details: ATP 20 μM; read-out: CDK1 LANCE assay (activity range), IC50
T2 construct: purchased Carna
Experimental: (§2) 2. Measurement of half maximal inhibitory concentration to CDKs This protocol describes how the Lance Ultra KinaSelect Assay was performed to determine half maximal inhibitory concentration (1050) of compounds of general formula (I) and CDK/Cyclin complexes. The principle behind this enzymatic assay is based upon the phosphorylation of the ULight-Peptide Substrat. It is detected by using a specific
(§3) EU-labeled anti-phospho peptide antibody. The binding of the Eu-labeled anti-phospho peptide antibody to the phosphorylated ULight labeled peptide gives rise to a FRET-signal. Binding of an inhibitor to the kinase prevents phosphorylation of the ULight-MBP Substrat, resulting in a loss of FRET.
(§4) The compounds of general formula (I) summarized in Table 5 were diluted from a 10 mM DMSO stock solution 1:10 in a total volume of 15 μL DMSO. This compound predilution was then serial diluted 1:3 over 8 steps in DMSO and briefly spun down. Each compound solution was now diluted 1:20 in Enzymatic Buffer (HEPES: 50 mM, pH: 7.5; MgCl2: 10 mM; EGTA: 1 mM; DTT: 2 mM; Tween-20: 0.01%), mixed thoroughly and spun down. For every sample, 2 μL of the diluted compound were mixed with 6 μL CDK/Cyclin/Substrat solution and 2 μL ATP solution in a well of a small volume 384 well plate (Corning Incorporated, Corning, N.Y., USA; order no. 3673). The CDK/Cyclin was diluted to the appropriate concentration (see Table 3) and the ATP concentration was adjusted to its […] for the CDK/Cyclin, which was 3 μM for CDK2/Cyclin A, 20 μM for CDK1/Cyclin B1, 25 μM for CDK7/Cyclin H and CDK9/Cyclin T1, 55 μM for CDK6/Cyclin D3, 90 μM for CDK4/Cyclin D1 and 125 μM for CDK9/Cyclin K. For negative controls, in each well 2 μL of DMSO solution (1% final DMSO assay concentration) was mixed with 6 μL substrate solution (50 nM ULight MBP final assay concentration) and 2 μL ATP solution (appropriate final concentration see Table 3). For positive controls, in each well 2 μL of DMSO solution (1% final DMSO assay concentration) was mixed with 6 μL CDK/Cyclin/Substrat (appropriate final concentration see Table 3) and 2 μL Tracer ATP solution (appropriate final concentration see Table 3). Positive and negative controls were calculated from at least 8 different sample wells. The 384 well plates were mixed in a Teleshaker plate mixer (Beckman Coulter, Brea, Calif., USA) at 2000 rpm for 40 sec, and incubated for 1 h at room temperature. Before reading, 10 μL the detection buffer (Lance Detection Buffer 1×; EDTA: […]; Eu-Anti-P-MBP: see Table 3) was added. The FRET signal was measured at 340 nm excitation, 665 nm and 615 nm emission (for the kinase tracer and LanthaScreen Eu-AB, respectively) with an Envision spectrophotometer (Perkin Elmer, Waltham, Mass., USA) with 50 μs delay and 300 μs integration time. IC50 values were determined from the sigmoidal dose response curves with the software Quattro Workflow (Quattro GmbH, Munich, Germany).

CDK9/Cyclin T1 = target: T3, CDK9/Cyclin T1 (Homo sapiens, UniProt P50750); assay: LanthaScreen Eu Kinase Binding Assay, CDK9/Cyclin T1; details: tracer 236, read-out: CDK9/Cyclin T1 (activity range), Kd
T3 construct: His; purchased Invitrogen
Summary of the method: as §1

CDK4/CyclinD1 = target: T4, CDK4/CyclinD1 (Homo sapiens, UniProt P11802); assay: Lance Ultra KinaSelect Assay, CDK4; assay type: biochemical; details: ATP 90 μM; read-out: CDK4 LANCE assay (activity range), IC50
T4 construct: purchased Invitrogen
Experimental: as §2, §3, §4

CDK2/CyclinA = target: T5, CDK2/CyclinA (Homo sapiens, UniProt P24941); assay: LanthaScreen Eu Kinase Binding Assay, CDK2; details: tracer 236, read-out: CDK2 (activity range), Kd
T5 construct: GST; purchased Proqinase
Summary of the method: as §1

T2 sequence (P06493 whole entry): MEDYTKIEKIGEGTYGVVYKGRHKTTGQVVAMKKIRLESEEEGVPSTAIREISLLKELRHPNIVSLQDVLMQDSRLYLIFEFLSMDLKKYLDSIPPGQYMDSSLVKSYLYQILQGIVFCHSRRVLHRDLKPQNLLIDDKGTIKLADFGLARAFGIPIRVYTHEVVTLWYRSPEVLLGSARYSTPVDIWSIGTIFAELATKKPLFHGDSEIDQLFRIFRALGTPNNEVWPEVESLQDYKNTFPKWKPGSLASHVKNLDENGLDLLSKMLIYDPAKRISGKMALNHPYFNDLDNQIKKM
T2 sequence (P14635 whole entry partner): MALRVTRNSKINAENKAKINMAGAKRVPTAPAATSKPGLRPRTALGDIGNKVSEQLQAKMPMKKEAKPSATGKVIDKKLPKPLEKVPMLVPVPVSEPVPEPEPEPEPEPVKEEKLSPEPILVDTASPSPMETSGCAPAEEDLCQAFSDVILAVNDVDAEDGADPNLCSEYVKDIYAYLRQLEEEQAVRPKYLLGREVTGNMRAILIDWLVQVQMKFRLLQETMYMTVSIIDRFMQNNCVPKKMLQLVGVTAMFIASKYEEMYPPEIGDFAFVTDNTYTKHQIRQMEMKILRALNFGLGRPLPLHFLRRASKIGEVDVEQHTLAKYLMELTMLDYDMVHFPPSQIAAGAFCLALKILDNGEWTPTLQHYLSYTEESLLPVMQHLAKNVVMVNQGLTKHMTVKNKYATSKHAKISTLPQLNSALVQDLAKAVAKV
T4 sequence (P11802 whole entry): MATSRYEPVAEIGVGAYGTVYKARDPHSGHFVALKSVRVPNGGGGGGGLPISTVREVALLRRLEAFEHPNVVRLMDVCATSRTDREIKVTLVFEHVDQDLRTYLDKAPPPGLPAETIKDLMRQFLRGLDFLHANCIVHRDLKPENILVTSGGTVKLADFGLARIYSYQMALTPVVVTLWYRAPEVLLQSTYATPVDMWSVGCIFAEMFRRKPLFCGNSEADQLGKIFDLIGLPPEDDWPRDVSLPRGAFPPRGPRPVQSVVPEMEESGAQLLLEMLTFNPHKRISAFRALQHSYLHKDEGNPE
T4 sequence (P24385 whole entry partner): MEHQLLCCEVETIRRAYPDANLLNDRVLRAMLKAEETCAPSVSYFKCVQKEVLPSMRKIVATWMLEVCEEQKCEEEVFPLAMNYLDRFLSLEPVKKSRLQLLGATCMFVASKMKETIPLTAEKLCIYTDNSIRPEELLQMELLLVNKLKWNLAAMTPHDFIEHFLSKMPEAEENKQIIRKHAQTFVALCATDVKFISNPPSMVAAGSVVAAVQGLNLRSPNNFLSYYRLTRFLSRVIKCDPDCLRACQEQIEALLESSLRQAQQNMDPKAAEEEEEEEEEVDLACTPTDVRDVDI
T3 sequence (P50750 whole entry): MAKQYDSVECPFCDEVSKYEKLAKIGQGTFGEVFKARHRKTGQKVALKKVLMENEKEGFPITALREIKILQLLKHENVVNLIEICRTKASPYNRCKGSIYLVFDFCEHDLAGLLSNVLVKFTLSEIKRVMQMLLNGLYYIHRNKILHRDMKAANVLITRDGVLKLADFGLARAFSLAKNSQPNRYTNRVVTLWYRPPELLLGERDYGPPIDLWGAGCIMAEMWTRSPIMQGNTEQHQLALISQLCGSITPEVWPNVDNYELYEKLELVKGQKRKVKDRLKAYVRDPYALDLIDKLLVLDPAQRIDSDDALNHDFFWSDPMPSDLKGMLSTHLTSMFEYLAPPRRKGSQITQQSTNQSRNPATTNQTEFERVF
T3 sequence (O60563 whole entry partner): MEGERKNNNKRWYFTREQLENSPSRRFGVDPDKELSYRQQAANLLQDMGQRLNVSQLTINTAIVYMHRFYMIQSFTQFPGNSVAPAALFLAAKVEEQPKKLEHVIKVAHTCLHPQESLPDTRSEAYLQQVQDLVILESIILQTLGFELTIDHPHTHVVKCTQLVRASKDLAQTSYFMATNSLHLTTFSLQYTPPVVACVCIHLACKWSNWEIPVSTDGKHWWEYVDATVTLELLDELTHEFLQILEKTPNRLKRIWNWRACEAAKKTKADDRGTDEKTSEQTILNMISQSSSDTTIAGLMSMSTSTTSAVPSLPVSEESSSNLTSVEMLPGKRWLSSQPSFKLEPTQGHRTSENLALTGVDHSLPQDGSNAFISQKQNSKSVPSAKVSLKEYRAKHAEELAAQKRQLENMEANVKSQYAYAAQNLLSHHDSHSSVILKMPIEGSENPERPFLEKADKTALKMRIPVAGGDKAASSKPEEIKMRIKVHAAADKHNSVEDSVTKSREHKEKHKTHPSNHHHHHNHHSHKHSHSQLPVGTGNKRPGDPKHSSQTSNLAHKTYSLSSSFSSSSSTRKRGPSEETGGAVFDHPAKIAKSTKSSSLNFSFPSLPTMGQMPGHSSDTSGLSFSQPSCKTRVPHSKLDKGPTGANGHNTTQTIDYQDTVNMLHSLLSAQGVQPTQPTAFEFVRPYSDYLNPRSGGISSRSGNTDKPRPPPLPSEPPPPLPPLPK
T1 sequence (P50750 whole entry): as the sequence (P50750 whole entry) above
T1 sequence (O75909 1-357 isoform O75909-1 partner): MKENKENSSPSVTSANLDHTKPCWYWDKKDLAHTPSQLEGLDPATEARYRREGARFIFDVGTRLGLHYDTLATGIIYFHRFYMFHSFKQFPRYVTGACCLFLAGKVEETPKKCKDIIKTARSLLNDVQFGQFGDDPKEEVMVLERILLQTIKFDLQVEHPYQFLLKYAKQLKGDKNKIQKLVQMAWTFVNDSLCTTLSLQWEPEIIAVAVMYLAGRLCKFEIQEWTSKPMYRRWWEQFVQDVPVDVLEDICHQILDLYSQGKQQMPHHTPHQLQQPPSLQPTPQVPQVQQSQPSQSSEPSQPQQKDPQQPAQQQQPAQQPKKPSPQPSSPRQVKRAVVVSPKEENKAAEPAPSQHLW

Row | Compound | Kd (CDK9/Cyclin K) | IC50 (CDK1/CyclinB1) | Kd (CDK9/Cyclin T1) | IC50 (CDK4/CyclinD1) | Kd (CDK2/CyclinA)
1 | NS(=O)(=O)Cc1cccc(Nc2ncnc(N3CCCCC3)n2)c1 [Compound B1, 3-[(4-(Piperidin-1-yl)-1,3,5-triazin-2-yl)amino]benzenemethane sulfonamide] | 100 to 1000 nM | > 10000 nM | 100 to 1000 nM | > 10000 nM | > 10000 nM
2 | COC(=O)[C@H]1CCCN1c1ncnc(Nc2cccc(CS(N)(=O)=O)c2)n1 [Compound B21, (R)-Methyl 1-[4-((3-(Sulfamoylmethyl)phenyl)amino)-1,3,5-triazin-2-yl]pyrrolidine-2-carboxylate] | 100 to 1000 nM |  | < 100 nM |  | 1000 to 10000 nM
3 | NS(=O)(=O)Cc1cccc(Nc2ncnc(N3CCc4ncccc4C3)n2)c1 [Compound B38, 3-[(4-(7,8-Dihydro-1,6-naphthyridin-6(5H)-yl)-1,3,5-triazin-2-yl)amino]-benzenemethanesulfonamide] | < 100 nM | 100 to 1000 nM | < 100 nM | > 10000 nM | 100 to 1000 nM
4 | NS(=O)(=O)Cc1cccc(Nc2ncnc(N3CCc4nc[nH]c4C3)n2)c1 [Compound B44, 3-[(4-(6,7-Dihydro-3H-imidazo[4,5-c]pyridin-5(4H)-yl)-1,3,5-triazin-2-yl)amino]benzenemethanesulfonamide] | < 100 nM |  | < 100 nM |  | < 100 nM
5 | NS(=O)(=O)Cc1cccc(Nc2ncnc(N3Cc4cn[nH]c4C3)n2)c1 [Compound B51, 3-[(4-(Pyrrolo[3,4-c]pyrazol-5(1H,4H,6H)-yl)-1,3,5-triazin-2-yl)amino]-benzenemethanesulfonamide] | < 100 nM | 1000 to 10000 nM | < 100 nM | > 10000 nM | 1000 to 10000 nM

The next lines start with the values.

Row | Kd (CDK9/Cyclin K) | IC50 (CDK1/CyclinB1) | Kd (CDK9/Cyclin T1) | IC50 (CDK4/CyclinD1) | Kd (CDK2/CyclinA) | Compound
6 | < 100 nM | 1000 to 10000 nM | < 100 nM | > 10000 nM |  | NS(=O)(=O)Cc1cccc(Nc2ncnc(N3CCCC3c3ccccc3)n2)c1 (racemic) [Compound B33, rac-3-[(4-(2-Phenylpyrrolidin-1-yl)-1,3,5-triazin-2-yl)amino]-benzenemethanesulfonamide]
7 | 100 to 1000 nM | 1000 to 10000 nM | < 100 nM | > 10000 nM | 1000 to 10000 nM | COC[C@H]1CCCN1c1ncnc(Nc2cccc(CS(N)(=O)=O)c2)n1 [Compound B17, (R)-3-[(4-(2-(Methoxymethyl)pyrrolidin-1-yl)-1,3,5-triazin-2-yl)amino]benzenemethanesulfonamide]
8 |  |  | < 100 nM |  | < 100 nM | NS(=O)(=O)Cc1cccc(Nc2ncnc(N3CCc4ncsc4C3)n2)c1 [Compound B45, 3-[(4-(6,7-Dihydrothiazolo[5,4-c]pyridin-5(4H)-yl)-1,3,5-triazin-2-yl)amino]benzenemethanesulfonamide]
9 | < 100 nM | 100 to 1000 nM | < 100 nM | 1000 to 10000 nM | < 100 nM | NS(=O)(=O)Cc1cccc(Nc2ncnc(N3CCCn4nccc43)n2)c1 [Compound B47, 3-[(4-(6,7-Dihydropyrazolo[1,5-a]pyrimidin-4(5H)-yl)-1,3,5-triazin-2-yl)amino]benzenemethanesulfonamide]
